Experimental data reported in PubChem BioAssay AID1918952 (Molecular Pharmacology Branch, DTP, NCI, 2023).

Test system: LG0703-F948-PDC complex spheroid viability
Test: Anticancer human tumor LG0703-F948-PDC patient-derived lung adenocarcinoma cell line growth inhibition
Settings: for IC50: curve of first compound; for viability, T/C: stronger effect = lower value; active = viability on the fitted dose curve at most 10% of control; inactive = the rest
Method in brief: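 Drug combinations with the LSD1 inhibitor iadademstat tested on tumor cells co-cultured as spheroids with endothelial cells and mesenchymal stem cells. Concentrations descended in half-log increments from clinical Cmax or 10 microM.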

[1] = second compound 0.1 µM, first compound 0.0316 µM
[2] = second compound 0.1 µM, first compound 0.1 µM
[3] = second compound 0.1 µM, first compound 0.316 µM
[4] = second compound 0.1 µM, first compound 1 µM
[5] = second compound 0.316 µM, first compound 0.0316 µM
[6] = second compound 0.316 µM, first compound 0.1 µM
[7] = second compound 0.316 µM, first compound 0.316 µM
[8] = second compound 0.316 µM, first compound 1 µM
[9] = second compound 1 µM, first compound 0.0316 µM
[10] = second compound 1 µM, first compound 0.1 µM
[11] = second compound 1 µM, first compound 0.316 µM
[12] = second compound 1 µM, first compound 1 µM
[13] = second compound 3.16 µM, first compound 0.0316 µM
[14] = second compound 3.16 µM, first compound 0.1 µM
[15] = second compound 3.16 µM, first compound 0.316 µM
[16] = second compound 3.16 µM, first compound 1 µM
[17] = second compound 10 µM, first compound 0.0316 µM
[18] = second compound 10 µM, first compound 0.1 µM
[19] = second compound 10 µM, first compound 0.316 µM
[20] = second compound 10 µM, first compound 1 µM
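Note: spheroids exposed to agents for seven days before readout.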
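Throughout, for viability, T/C: 100% = DMSO vehicle control wells as normalization base.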

COc1ccc([C@@H](O)c2cc(-c3ncnc4cc(N5CCOCC5)ccc34)c(F)cc2Cl)nn1 + NC1CC1c1ccc(-c2cccc(O)c2)cc1
1.52 µM: IC50 (second compound 0.1 µM)
inactive: viability, T/C [1] 90.3% | viability, T/C [2] 110% | viability, T/C [3] 96.5% | viability, T/C [4] 61% | viability, T/C (second compound 0.1 µM, first compound 3.16 µM) 27.2% | viability, T/C [5] 112% | viability, T/C [6] 98.2% | viability, T/C [7] 98.7% | viability, T/C [8] 68.2% | viability, T/C (second compound 0.316 µM, first compound 3.16 µM) 23% | viability, T/C [9] 98.8% | viability, T/C [10] 96.7% | viability, T/C [11] 98.7% | viability, T/C [12] 63.8% | viability, T/C (second compound 1 µM, first compound 3.16 µM) 21.7% | viability, T/C [13] 107% | viability, T/C [14] 101% | viability, T/C [15] 86.1% | viability, T/C [16] 59.2% | viability, T/C (second compound 3.16 µM, first compound 3.16 µM) 16.3% | viability, T/C [17] 108% | viability, T/C [18] 99.4% | viability, T/C [19] 90.4% | viability, T/C [20] 57.9% | viability, T/C (second compound 10 µM, first compound 3.16 µM) 7.24%
1.21 µM: IC50 (second compound 3.16 µM)
1.49 µM: IC50 (second compound 1 µM)
active: viability, T/C (second compound 0.1 µM, first compound 10 µM) 3.8% | viability, T/C (second compound 0.316 µM, first compound 10 µM) 4.64% | viability, T/C (second compound 1 µM, first compound 10 µM) 3.41% | viability, T/C (second compound 3.16 µM, first compound 10 µM) 2.59% | viability, T/C (second compound 10 µM, first compound 10 µM) 2.33%
1.59 µM: IC50 (second compound 0.316 µM)
1.14 µM: IC50 (second compound 10 µM)

Nc1ncn(C2CC(O)C(CO)S2)c(=O)n1 (stereo not given) + NC1CC1c1ccc(-c2cccc(O)c2)cc1
> 0.3 µM: IC50 (second compound 0.1 µM) | IC50 (second compound 0.316 µM) | IC50 (second compound 1 µM) | IC50 (second compound 3.16 µM) | IC50 (second compound 10 µM)
inactive: viability, T/C (second compound 0.1 µM, first compound 0.000949 µM) 114% | viability, T/C (second compound 0.1 µM, first compound 0.003 µM) 102% | viability, T/C (second compound 0.1 µM, first compound 0.00949 µM) 104% | viability, T/C (second compound 0.1 µM, first compound 0.03 µM) 108% | viability, T/C (second compound 0.1 µM, first compound 0.0949 µM) 108% | viability, T/C (second compound 0.1 µM, first compound 0.3 µM) 86.2% | viability, T/C (second compound 0.316 µM, first compound 0.000949 µM) 106% | viability, T/C (second compound 0.316 µM, first compound 0.003 µM) 92.7% | viability, T/C (second compound 0.316 µM, first compound 0.00949 µM) 91% | viability, T/C (second compound 0.316 µM, first compound 0.03 µM) 107% | viability, T/C (second compound 0.316 µM, first compound 0.0949 µM) 102% | viability, T/C (second compound 0.316 µM, first compound 0.3 µM) 81.1% | viability, T/C (second compound 1 µM, first compound 0.000949 µM) 117% | viability, T/C (second compound 1 µM, first compound 0.003 µM) 105% | viability, T/C (second compound 1 µM, first compound 0.00949 µM) 102% | viability, T/C (second compound 1 µM, first compound 0.03 µM) 108% | viability, T/C (second compound 1 µM, first compound 0.0949 µM) 82.4% | viability, T/C (second compound 1 µM, first compound 0.3 µM) 84.8% | viability, T/C (second compound 3.16 µM, first compound 0.000949 µM) 114% | viability, T/C (second compound 3.16 µM, first compound 0.003 µM) 101% | viability, T/C (second compound 3.16 µM, first compound 0.00949 µM) 90.8% | viability, T/C (second compound 3.16 µM, first compound 0.03 µM) 104% | viability, T/C (second compound 3.16 µM, first compound 0.0949 µM) 100% | viability, T/C (second compound 3.16 µM, first compound 0.3 µM) 71.5% | viability, T/C (second compound 10 µM, first compound 0.000949 µM) 104% | viability, T/C (second compound 10 µM, first compound 0.003 µM) 94.7% | viability, T/C (second compound 10 µM, first compound 0.00949 µM) 96.8% | viability, T/C (second compound 10 µM, first compound 0.03 µM) 105% | viability, T/C (second compound 10 µM, first compound 0.0949 µM) 103% | viability, T/C (second compound 10 µM, first compound 0.3 µM) 77.4%

O=C(C=Cn1cnc(-c2cc(C(F)(F)F)cc(C(F)(F)F)c2)n1)NNc1cnccn1 + NC1CC1c1ccc(-c2cccc(O)c2)cc1
inactive: viability, T/C (second compound 0.1 µM, first compound 0.00316 µM) 62.2% | viability, T/C (second compound 0.1 µM, first compound 0.01 µM) 54.6% | viability, T/C [1] 38.8% | viability, T/C [2] 34.7% | viability, T/C [3] 31.8% | viability, T/C [4] 25.4% | viability, T/C (second compound 0.316 µM, first compound 0.00316 µM) 67.6% | viability, T/C (second compound 0.316 µM, first compound 0.01 µM) 58.9% | viability, T/C [5] 40% | viability, T/C [6] 36.2% | viability, T/C [7] 26% | viability, T/C [8] 24.6% | viability, T/C (second compound 1 µM, first compound 0.00316 µM) 70.4% | viability, T/C (second compound 1 µM, first compound 0.01 µM) 58.8% | viability, T/C [9] 47% | viability, T/C [10] 39.5% | viability, T/C [11] 29.5% | viability, T/C [12] 22.6% | viability, T/C (second compound 3.16 µM, first compound 0.00316 µM) 70.4% | viability, T/C (second compound 3.16 µM, first compound 0.01 µM) 67.7% | viability, T/C [13] 64% | viability, T/C [14] 43.6% | viability, T/C [15] 22.4% | viability, T/C [16] 22% | viability, T/C (second compound 10 µM, first compound 0.00316 µM) 75.8% | viability, T/C (second compound 10 µM, first compound 0.01 µM) 73.1% | viability, T/C [17] 64.2% | viability, T/C [18] 54.9% | viability, T/C [19] 31.7% | viability, T/C [20] 23.7%
0.0691 µM: IC50 (second compound 3.16 µM)
0.018 µM: IC50 (second compound 0.316 µM)
0.0121 µM: IC50 (second compound 0.1 µM)
0.114 µM: IC50 (second compound 10 µM)
0.0259 µM: IC50 (second compound 1 µM)
